Values joined by “and” are separate entries in the source; they are usually repeats but may differ in a detail not shown here. Equal values may be shown once. Peptide text beside a SMILES is read from it.
What was measured:
bacterial burden = experiment: Survival study with rabbit PJI model; assay type: in vivo; conditions: for survival rates of rabbits as a function of days post-infection: observed up to 14 days (Group 4: 28 days)
Protocol: In the following Examples 1-5, the administered WLBU-2 formulations were prepared as described in this paragraph. Exemplary pharmaceutical formulations comprising WLBU-2 were prepared at concentrations of 0.5 mg/mL and 1.0 mg/mL in vehicle (dPBS), by formulating under aseptic conditions. WLBU-2 was added while mixing to approximately 90% of volume with vehicle, and mixed until the solution was clear. The solution was adjusted to pH 7.4 using a 1% NaOH solution. dPBS was added quantity sufficient to final volume. The final pH of the solution was read and recorded.
This example illustrates the antibacterial activity an exemplary formulation of WLBU-2, beta lactam antibiotic, and in combination in reducing CFU in vivo with varying concentrations and time of exposure.
A bone tunnel in the tibial canal was created using a drill with a 1.2 mm or 1.6 mm tungsten carbide drill bit. The bone tunnel was then dried and treated to simulate acute human PJI following primary arthroplasty. A Kirschner wire implant was placed in the bone tunnel and the wound closed. Prior to closure of the superficial skin layer, 0.1 mL of 2×10^6 planktonic bacteria (CFU/rabbit) in saline was injected into the joint space. A closure was performed, and a biofilm was allowed to become established over a period of 2 days.
In each group, the joint space was reopened and treated with I&D at 2 days post-infection. Group 1 received neither cefazolin nor WLBU-2. Group 2 received cefazolin but not WLBU-2. Group 3 received WLBU-2 but not the cefazolin. Group 4 received both cefazolin and WLBU-2 treatment. Where applicable, cefazolin was delivered subcutaneously at 10 mg/kg BID for 5 days. Where applicable, WLBU-2 was delivered with 2 ml of WLBU-2 at 1 mg/ml with exposure of 15 minutes. […] When an animal was sick or needed to be euthanized, the implant and a part of the tibia was collected postmortem and CFU analysis was performed. All surviving animals (except for Group 4) were euthanized on day 14 and the implant and tibia were collected most mortem.

S. aureus = experiment: MIC, CLSI protocol, planktonic ESKAPE pathogens; assay type: cell-based, Staphylococcus aureus; conditions: N=4
Protocol: (§1) Standard Clinical and Laboratory Standards Institute (CLSI) protocol was used to measure the minimum inhibitory concentration (MIC) against each organism. Biofilm model: Implant material was prepared from 0.6 mm diameter stainless steel Kirschner wire and plated at 0.5×10^6 CFU/ml. Mature biofilm developed over 48 hours, wires were washed, and then treated with 1 mg/mL WLBU-2 (SEQ ID: 10) in PBS (pH 7.4) for 5, 15, and 30 minutes. Quantitative culture (colony forming unit, CFU) analysis was then completed.
(§2) ESKAPE pathogens were selected from a large clinical library of MDR and non-MDR organisms (n>100 organism). […] At 15 minutes, organisms had greater than a 3 log reduction in biofilm mass (E. faecium: 3 log 10; S. aureus: 5 log 10; K. pneumoniae 6 log 10; A. baumannii 5 log 10; P. aeruginosa 8 log 10; E. cloacae 7 log 10; E. coli 5 log 10).

E. cloacae = experiment: MIC, CLSI protocol, planktonic ESKAPE pathogens; assay type: cell-based; conditions: N=2
Protocol: as §1, §2

K. pneumoniae = experiment: MIC, CLSI protocol, planktonic ESKAPE pathogens; assay type: cell-based, Klebsiella pneumoniae; conditions: N=8
Protocol: as §1, §2

A. baumannii = experiment: MIC, CLSI protocol, planktonic ESKAPE pathogens; assay type: cell-based, Acinetobacter baumannii; conditions: N=24
Protocol: as §1, §2

E. coli [1] = experiment: MIC, CLSI protocol, planktonic ESKAPE pathogens; assay type: cell-based; conditions: N=8
Protocol: as §1, §2

[2] = system: gram-positive and gram-negative bacteria on infected prostheses; experiment: Human patient knee explant study (Example 5), ex vivo CFU analysis, all implants; assay type: cell-based; conditions: 1 mg/mL in dPBS pH 7.4, 15 minutes; vs untreated implant of same patient
Protocol: (§3) Patients diagnosed with chronic PJI were prospectively enrolled (n=17). All patients met the diagnosis of PJI as defined by the 2018 International Consensus Meeting criteria. The implant was first washed with 50 ml Dulbecco's PBS (dPBS) and submerged ex vivo in an expected clinical exposure of 1 mg/mL WLBU-2 (SEQ ID: 10) in Dulbecco's PBS (dPBS) adjusted to pH 7.4 for 15 minutes. After treatment, the sample was washed with 50 mL of dPBS and sonicated in PBS containing 1% Tween 20 for 5 minutes. After sonication, 100 microliters of the implant sonication fluid was serially diluted, and plated for quantitative culture (CFU analysis). The remaining explanted implant from the same patient served as a control and was processed similarly but without exposure to WLBU-2 (SEQ ID: 10).

E. coli [3] = experiment: Human patient knee explant study (Example 5), ex vivo CFU analysis; assay type: cell-based; conditions: treated vs untreated explant of same patient, 1 mg/mL, 15 minutes
Protocol: as §3

E. faecalis = experiment: as above; assay type: cell-based; conditions: treated vs untreated explant of same patient, 1 mg/mL, 15 minutes
Protocol: as §3

[4] = system: Haemophilus parainfluenzae; experiment: as above; assay type: cell-based; conditions: treated vs untreated explant of same patient, 1 mg/mL, 15 minutes
Protocol: as §3

S. aureus (MRSA) = experiment: as above; assay type: cell-based; conditions: treated vs untreated explant of same patient, 1 mg/mL, 15 minutes
Protocol: as §3

S. aureus (MSSA) = experiment: as above; assay type: cell-based; conditions: treated vs untreated explant of same patient, 1 mg/mL, 15 minutes
Protocol: as §3

S. caprae = experiment: as above; assay type: cell-based; conditions: treated vs untreated explant of same patient, 1 mg/mL, 15 minutes
Protocol: as §3

S. dysgalactiae = experiment: as above; assay type: cell-based; conditions: treated vs untreated explant of same patient, 1 mg/mL, 15 minutes
Protocol: as §3

S. hemolyticus = experiment: as above; assay type: cell-based; conditions: treated vs untreated explant of same patient, 1 mg/mL, 15 minutes
Protocol: as §3

[5] = Local or systemic toxicity in animal models; assay type: in vivo
P. aeruginosa = experiment: MIC, CLSI protocol, planktonic ESKAPE pathogens; assay type: cell-based, Pseudomonas aeruginosa; conditions: N=20
Protocol: as §1, §2

[6] = cefazolin 10 mg/kg sc BID 5 days and/or WLBU-2 2 ml at 1 mg/ml 15 minutes, vs untreated Group 1
[7] = cefazolin 10 mg/kg sc BID 5 days and/or WLBU-2 2 ml at 1 mg/ml 15 minutes, vs untreated Group 1, listed as cefazolin

Q: Which “body weight as a function of days post infection” value (bacterial burden; I&D 2 days post-infection, cefazolin 10 mg/kg sc BID 5 days and/or WLBU-2 2 ml at 1 mg/ml 15 minutes) does the source give for `Cc1nnc(SCC2=C(C(=O)O)N3C(=O)[C@@H](NC(=O)Cn4cnnn4)[C@H]3SC2)s1` [Cefazolin] here?
A: No significance

Q: What about the “bacterial burden of collected implants (CFU analysis), reduction” value (bacterial burden; [6]) of the same compound?
A: significantly lower bacterial burden

Q: What about the “bacterial burden of collected tibia (bone CFU analysis), reduction” value (bacterial burden; [6]) of the same compound?
A: 2.6 log

Q: What about the “total CFU (implant and bone), reduction in total bacterial burden” value (bacterial burden; [6]) of the same compound?
A: Significant reductions in total bacterial burden

Q: And the “bacterial burden of collected tibia (bone CFU analysis), reduction” value (bacterial burden; [7])?
A: significantly lower bacterial burden

Q: And the “total CFU (implant and bone), reduction in total bacterial burden” value (bacterial burden; [7])?
A: significantly lower bacterial burden

Q: What about the “survival rates of rabbits as a function of days post-infection” value (bacterial burden; vs untreated Group 1) of the same compound?
A: improved survival in comparison to Group 1

Q: What about the “survival rates of rabbits as a function of days post-infection” value (bacterial burden; vs untreated Group 1, listed as cefazolin) of the same compound?
A: second-best survival rates

Q: With `C[C@@H](O)[C@H]1C(=O)N2C(C(=O)O)=C(SCCN=CN)C[C@H]12` [IPM, imipenem] as the compound, how does the “minimum inhibitory concentration (MIC)” value (S. aureus) read?
A: .015-.03

Q: And the “minimum inhibitory concentration (MIC)” value (E. cloacae)?
A: 0.25

Q: For `C[C@H]1COc2c(N3CCN(C)CC3)c(F)cc3c(=O)c(C(=O)O)cn1c23` [LVX, levofloxacin], which “minimum inhibitory concentration (MIC)” value (S. aureus) is on record?
A: .015-.03

Q: With `CC(=O)NC[C@H]1CN(c2ccc(N3CCOCC3)c(F)c2)C(=O)O1` [LZD, linezolid] as the compound, how does the “minimum inhibitory concentration (MIC)” value (S. aureus) read?
A: 4

Q: With `CN(C)c1cc(NC(=O)CNC(C)(C)C)c(O)c2c1C[C@H]1C[C@H]3[C@H](N(C)C)C(O)=C(C(N)=O)C(=O)[C@@]3(O)C(O)=C1C2=O` [TIG, tigecycline] as the compound, how does the “minimum inhibitory concentration (MIC)” value (K. pneumoniae) read?
A: 0.5-2

Q: And the “minimum inhibitory concentration (MIC)” value (A. baumannii)?
A: 1-16

Q: And the “minimum inhibitory concentration (MIC)” value (E. cloacae)?
A: 0.5-2

Q: What about the “minimum inhibitory concentration (MIC)” value (E. coli [1]) of the same compound?
A: .25-0.5

Q: With `CN[C@H](CC(C)C)C(=O)N[C@H]1C(=O)N[C@@H](CC(N)=O)C(=O)N[C@H]2C(=O)N[C@H]3C(=O)N[C@H](C(=O)N[C@H](C(=O)O)c4cc(O)cc(O)c4-c4cc3ccc4O)[C@H](O)c3ccc(c(Cl)c3)Oc3cc2cc(c3O[C@@H]2O[C@H](CO)[C@@H](O)[C@H](O)[C@H]2O[C@H]2C[C@](C)(N)[C@H](O)[C@H](C)O2)Oc2ccc(cc2Cl)[C@H]1O` [VAN, vancomycin] as the compound, how does the “minimum inhibitory concentration (MIC)” value (S. aureus) read?
A: 1

Q: With `CC(C)[C@H](NC(=O)[C@H](Cc1c[nH]c2ccccc12)NC(=O)[C@H](CCCNC(=N)N)NC(=O)[C@H](CCCNC(=N)N)NC(=O)[C@@H](NC(=O)[C@@H](NC(=O)[C@H](CCCNC(=N)N)NC(=O)[C@@H](NC(=O)[C@@H](NC(=O)[C@H](CCCNC(=N)N)NC(=O)[C@H](CCCNC(=N)N)NC(=O)[C@H](Cc1c[nH]c2ccccc12)NC(=O)[C@@H](NC(=O)[C@H](CCCNC(=N)N)NC(=O)[C@H](CCCNC(=N)N)NC(=O)[C@@H](NC(=O)[C@H](CCCNC(=N)N)NC(=O)[C@H](CCCNC(=N)N)NC(=O)[C@@H](NC(=O)[C@H](Cc1c[nH]c2ccccc12)NC(=O)[C@H](CCCNC(=N)N)NC(=O)[C@@H](N)CCCNC(=N)N)C(C)C)C(C)C)C(C)C)C(C)C)C(C)C)C(C)C)C(C)C)C(=O)N[C@@H](CCCNC(=N)N)C(=O)N[C@@H](CCCNC(=N)N)C(=O)O` [WLBU-2, RRWVRRVRRVWRRVVRVVRRWVRR] (H-RRWVRRVRRVWRRVVRVVRRWVRR-OH) as the compound, how does the mean log reduction [2] read?
A: 6 log

Q: And the “range of log reduction” value [2]?
A: 2-7.70 log

Q: And the Log reduction (E. coli [3])?
A: 6.2 and 5.9

Q: And the Log reduction (E. faecalis)?
A: 6.7

Q: And the Log reduction [4]?
A: 7.7

Q: And the Log reduction (S. aureus (MRSA))?
A: 7.7

Q: What about the Log reduction (S. aureus (MSSA)) of the same compound?
A: 3.6

Q: What about the Log reduction (S. caprae) of the same compound?
A: 7.7

Q: And the Log reduction (S. dysgalactiae)?
A: 4.0

Q: And the Log reduction (S. hemolyticus)?
A: 2.9

Q: What about the “toxicity to local tissue” value ([5]; 1 mg/mL for 15 minutes, murine and rabbit PJI animal models) of the same compound?
A: non-toxic to local tissue

Q: And the “local or systemic toxicity” value ([5]; therapeutic range of dosing in animal models)?
A: does not have significant local or systemic toxicity

Q: For colistin, which “minimum inhibitory concentration (MIC)” value (K. pneumoniae) is on record?
A: .06-16

Q: What about the “minimum inhibitory concentration (MIC)” value (P. aeruginosa) of the same compound?
A: .12-2^

Q: And the “minimum inhibitory concentration (MIC)” value (E. cloacae)?
A: .06-.25

Q: What about the “minimum inhibitory concentration (MIC)” value (E. coli [1]) of the same compound?
A: .06-.25

Reference: patent US20240317809A1, “Engineered Antimicrobial Peptides and Usage Thereof” (University of Pittsburgh-Of the Commonwealth System of …, priority 2021, published 2024)
